Key:
Format in all cases: cell-based
[1] = test system: CD19+ Raji cells; test: Cytolytic activity of anti-His adapter CAR T cells in co-culture with Raji cells and inducible anti-CD19 Fab T cells; settings: adapter CAR T cells (E:T 2:1) and 1E4 inducible T cells, 6 days
Method: Anti-His Adapter CAR T cell-mediated cytotoxicity against tumor cells was assessed by the quantification of living target cells using the MACSQuant® Analyzer 10 (Miltenyi Biotec). Therefore, 1E4 GFP^+ Raji cells were seeded in 50 μL TexMACS medium (Miltenyi Biotec) in a 96-well round-bottom plate. Anti-His Adapter CAR T cells were subsequently added at an E:T ratio of 2:1 in a volume of 50 μL TexMACS medium (Miltenyi Biotec). T cell numbers were adjusted to LNGFR expression implicating equal transduced and total T cell numbers in each well. The number of untransduced T cells was adjusted to total cell numbers. 1E4 anti-CD19 Fab inducible T cells that secrete the adapter molecule, a His-tagged anti-CD19 Fab, upon induction, were added to the respective wells. His-tagged anti-CD19 Fab secretion was induced by the addition of 100 nM 4-OHT (Sigma-Aldrich) in 50 μL TexMACS (Miltenyi Biotec) at the start of the assay. The plate was centrifuged at 300 g for 1 min and incubated at 37° C., 5% C02. The specific lysis of target cells was determined 6 days after co-culture set-up. […] Next, living target cells were quantified via flow cytometry. […] Living Raji tumor cells were defined as PI^−, GFP^+ cells and specific lysis was calculated according to the following formula: % specific lysis=(1−(Raji cell count [sample]/Raji cell count [target cell]))·100%.

[2] = test system: PD-1 expression on T cells; test: PD-1 expression (activation) of anti-His adapter CAR T cells in co-culture with Raji cells and inducible anti-CD19 Fab T cells; settings: adapter CAR T cells (E:T 2:1) and 1E4 inducible T cells, day 2
Method: To set up the co-culture, 1E4 GFP^+ Raji cells were seeded in 50 μL TexMACS medium (Miltenyi Biotec) in a 96-well round-bottom plate. Anti-His Adapter CAR T cells were subsequently added at an E:T ratio of 2:1 in a volume of 50 μL TexMACS medium (Miltenyi Biotec). T cell numbers were adjusted to LNGFR expression implicating equal transduced and total T cell numbers in each well. The number of untransduced T cells was adjusted to total cell numbers. 1E4 anti-CD19 Fab inducible T cells that secrete the adapter molecule, a His-tagged anti-CD19 Fab, upon induction, were added to the respective wells. His-tagged anti-CD19 Fab secretion was induced by the addition of 100 nM 4-OHT (Sigma-Aldrich) in 50 μL TexMACS (Miltenyi Biotec) at the start of the assay. The plate was centrifuged at 300 g for 1 min and incubated at 37° C., 5% C02 for 2 days. Activation of T cells was analyzed by staining the cells of the co-culture with anti-PD-1-PEVio770, CD3-VioBlue, CD8-VioGreen and LNGFR-APC conjugates (Miltenyi Biotec). Therefore, the co-culture plate was centrifuged at 300 g for 5 min and cells were stained with 50 μL staining mixture composed of the PD-1 PE07, conjugate (Miltenyi Biotec) diluted in PEB for 10 min at 4° C. Cells were washed twice with 200 μL PEB (300 g, 5 min). Cells were resuspended in 100 μL PEB for subsequent flow cytometric analysis. […]

[3] = test system: drug-inducible T cells; test: Induction of anti-CD19 Fab-His6 secretion by drug-inducible primary T cells; supernatant stained on CD19+ Raji cells; settings: 4-OHT 0-500 nM
Method: Lentiviral particles encoding for the drug-inducible cassette were manufactured as described in example 1.2. Drug-inducible T cells were generated as described in example 1.3. 1E4 LNGFR positive drug-inducible T cells were seeded in 100 μL TexMACS medium (Miltenyi Biotec) supplemented with IL-7 (Miltenyi Biotec) and IL-15 (Miltenyi Biotec) in a 96 round bottom well plate. Secretion of the His6-tagged anti-CD19 Fab was induced by the addition of different concentrations of 4-OHT (0-500 nM, Sigma-Aldrich) in 100 μL TexMACS medium (Miltenyi Biotec) supplemented with IL-7 (Miltenyi Biotec) and IL-15 (Miltenyi Biotec) to each well. Untransduced T cells constitute the negative control. Cells were incubated at 37° C. and 5% C02. His6-tagged anti-CD19 Fab containing supernatant was harvested 48 h after the induction. CD19^+ Raji cells were subsequently stained using T cell supernatant and anti-His-APC as secondary antibody. Therefore, 1E5 CD19^+ Raji cells were seeded in a 96 round bottom well plate. Cells were pelleted at 300 g for 5 min and stained with 50 μL of the collected T cell supernatant for 10 min at 4° C. […] The determined mean fluorescent intensity in the APC channel was correlated to the Fab concentration by extrapolation from a standard curve. […]

4-hydroxytamoxifen [4-OHT]
4-OHT concentration at which specific lysis of CD19+ Raji cells was detected [1]: at least 1 nM | 4-OHT concentration giving maximal specific lysis [1]: at least 10 nM | 4-OHT concentration at which PD-1 expression on T cells was detected [2]: at least 10 nM | 4-OHT concentration giving maximal frequency of PD-1 positive cells [2]: at least 50 nM | Amount of His6-tagged anti-CD19-Fab in T cell supernatant with increasing 4-OHT concentration ([3]; 48 h, Fab concentration extrapolated from standard curve): increasing amounts of His6-tagged anti-CD19-Fab is detected | Induction of His6-tagged anti-CD19-Fab secretion by inducible T cells ([3]; supernatant harvested 48 h after induction): strictly dependent on the presence of the inducer drug 4-OHT
